The numbers were not newly measured in patent US7569547B2, “Inhibiting furin with polybasic peptides” (Board of Supervisors of Louisiana State University and …, priority 2001, dated 2009), which cites them from elsewhere.

No end group written: not given here.

In general, Ki refers to the dissociation constant of the complex between target and ligand, obtained from inhibition or displacement.

Series [1] has as its target T1, furin (Homo sapiens, UniProt P09958). As to conditions: Lu et al. 1993; cited from earlier work.
The target in another series is T2, PC7 (Homo sapiens, UniProt Q16549).
T2 sequence (Q16549 142-785): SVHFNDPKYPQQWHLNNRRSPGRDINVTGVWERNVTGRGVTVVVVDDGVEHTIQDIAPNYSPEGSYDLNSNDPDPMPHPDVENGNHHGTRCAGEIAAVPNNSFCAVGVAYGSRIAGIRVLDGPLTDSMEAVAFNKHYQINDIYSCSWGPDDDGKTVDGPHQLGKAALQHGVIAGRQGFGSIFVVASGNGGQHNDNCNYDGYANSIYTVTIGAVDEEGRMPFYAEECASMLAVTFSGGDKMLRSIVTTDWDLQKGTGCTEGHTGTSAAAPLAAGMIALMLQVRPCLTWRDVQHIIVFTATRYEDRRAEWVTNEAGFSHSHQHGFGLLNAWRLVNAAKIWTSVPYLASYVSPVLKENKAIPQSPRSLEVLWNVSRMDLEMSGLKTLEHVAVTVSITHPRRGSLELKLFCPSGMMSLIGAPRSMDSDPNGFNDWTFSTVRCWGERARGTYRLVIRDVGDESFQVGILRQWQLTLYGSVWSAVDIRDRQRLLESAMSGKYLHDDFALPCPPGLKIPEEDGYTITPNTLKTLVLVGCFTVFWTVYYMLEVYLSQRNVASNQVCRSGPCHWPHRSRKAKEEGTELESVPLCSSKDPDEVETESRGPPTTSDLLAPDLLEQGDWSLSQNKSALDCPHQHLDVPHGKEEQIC
Particulars: Zhong et al. 1999; read-out: Ki against PC7; cited from earlier work.

Series [2] addresses T1, furin. Particulars: literature; read-out: Ki against furin; cited from earlier work.

T1 sequence (P09958 108-794): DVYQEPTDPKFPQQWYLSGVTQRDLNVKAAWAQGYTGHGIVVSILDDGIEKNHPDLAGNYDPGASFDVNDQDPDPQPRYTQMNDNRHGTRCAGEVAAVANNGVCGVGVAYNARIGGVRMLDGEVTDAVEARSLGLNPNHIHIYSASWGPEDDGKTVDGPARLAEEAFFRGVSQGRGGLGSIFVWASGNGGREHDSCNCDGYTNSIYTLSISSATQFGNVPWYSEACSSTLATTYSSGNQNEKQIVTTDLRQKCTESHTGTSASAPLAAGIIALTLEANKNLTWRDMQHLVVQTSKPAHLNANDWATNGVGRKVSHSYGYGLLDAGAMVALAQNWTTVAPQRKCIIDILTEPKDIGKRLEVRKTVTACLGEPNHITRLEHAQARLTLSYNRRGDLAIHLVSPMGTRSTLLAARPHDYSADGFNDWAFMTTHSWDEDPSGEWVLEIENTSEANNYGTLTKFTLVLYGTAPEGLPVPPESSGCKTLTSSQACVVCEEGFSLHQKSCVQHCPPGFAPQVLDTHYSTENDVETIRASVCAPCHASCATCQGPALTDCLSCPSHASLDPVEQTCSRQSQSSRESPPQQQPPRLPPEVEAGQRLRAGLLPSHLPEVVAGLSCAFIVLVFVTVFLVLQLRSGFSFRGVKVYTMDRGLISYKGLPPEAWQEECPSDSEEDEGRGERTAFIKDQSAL

For “Arg^15-Lys^17-Arg^18 turkey ovomucoid third domain: third domain of turkey ovomucoid engineered (KPACTLE^19→KPRCKRE^19) to increase specificity towards furin (not fully specified; ends and bridges not checked)”, the equilibrium constant in the series with furin [1] is 1.1e+07 M⁻¹.
For EQRLLKRAKR, the Ki was 6 nM on PC7 and 80 nM on furin [2].
For the substance QQVAKRRTKR, the inhibition constant (Ki) on PC7 was about 500 nM.
